Target: Carbonic anhydrase 9 (Homo sapiens, UniProt Q16790)
Description: Inhibition of catalytic domain of human recombinant carbonic anhydrase IX

Cc1ccc(-c2cc(C(F)(F)F)nn2-c2ccc(S(N)(=O)=O)cc2)cc1 [CELECOXIB]
Ki: 16 nM
